One data set concerns hyaluronic acid. Nature of the data set: Hyaluronic acid level by ELISA. Format: cell-based, human. Particulars: HaCat, 5 μmole, 72 hr. How it is done:
Furthermore, HaCat cell lines were incubated for 72 hr with 5 μmole of the present tridecapeptides and then the level of hyaluronic acid, a marker indicating the improvement in skin wrinkle, was measured using Hyaluronic acid ELISA kit (Echelon Biosciences Inc, USA) (FIG. 8).

Another data set relates to Human keratinocytes. In words: Cell adherency to peptide-pretreated culture dishes. Format: cell-based. The conditions noted are these: 24 hr. Here is the method: To analyze effects of peptides of this invention on proliferation of keratinocytes, SRB (Sulforhodamine B) colorimetric assay was carried out using HaCaT kerationcyte according to Rizzino et al method (Rizzino, et al. Cancer Res., 48:4266 (1988)). HaCaT ketatinocytes (The Korean Cell Line Bank) were cultured in 250 ml-flasks containing EMEM (Eagle's minimal essential media, Gibco, U.S.A.) supplemented with […] (fetal bovine serum). HaCaT ketatinocytes cultured were treated with 0.25% trypsin solution to detach cells from the bottom of culture flasks and centrifuged to collect cell pellets. Cells were resuspended in EMEM not containing FBS, its aliquot (4×10^3) cells was added to each well of 96-well plates and cultured under 7% CO2 for 24 hr at 37° C. After 24-hr culture, the medium was changed with a fresh medium not containing serum and cells were incubated with human EGF or the tri-decapeptide (10 ng/ml or 1,000 ng/ml) dissolved in 10% DMSO for 72 hr under the same conditions as described above. After removing supernatants, cells were washed once using PBS (phosphate buffered saline) and incubated with SRB solution (Sigma-Aldrich). Cells were washed with PBS and observed under a microscope to examine cell viability (FIG. 3). In addition, absorbance at 590 nm was measured to analyze cell proliferation (FIG. 4). […]

In another data set the test system is NIH-3T3 cell. In words: Stability of tridecapeptide: residual activity by MTT assay after storage at 37° C. The class given is physicochemical. The conditions noted are these: 50 mM Tris-HCl pH 8.0, 37° C, days 0-100; peptide 10 μg/ml, EGF 1 μg/ml; MTT on NIH-3T3. Here is the method: To evaluate stability of the synthesized and purified tridecapeptide of Example 1, the tridecapeptide was dissolved in 50 mM Tris-HCl (pH 8.0) to a concentration of 10 μg/ml. The recombinant EGF protein (Sigma-Aldrich) produced in E. coli was prepared as a control in the same buffer to a concentration of 1 μg/ml. The prepared solutions were introduced into glass vials and kept to stand at 37° C. Afterwards, the solutions were taken on days 0, 1, 10, 25, 50, 75 and 100 and subjected to MTT assay (Scudiero, D. A., et al. Cancer Res. 48:4827-4833 (1988)) using NIH-3T3 cell (Korean Cell Line Bank) to determine residual activities of the peptide and EGF (FIG. 2). The results were given as relative values to the activity (100%) of sample taken on day 0.
For orientation: Tetrazolium dyes change colour on reduction, which living cells bring about.

The test system of another data set is NIH3T3 cells. Nature of the data set: Cell motility after scratching the culture dish. Format: cell-based. Particulars: NIH3T3, 1 μg/ml, 1 and 3 day treatment. How it is done: We analyzed cell motility to further verify cell proliferation potency. NIH3T3 cells were plated on 60 mm-culture dishes and cultured to a suitable fluency. The bottom surface of culture dishes was scratched using pipette and incubated with 1 μg/ml of the present peptides, followed by observing cell motility. In FIG. 6, panels A and B show cell samples non-treated with peptides and panels C and D, cell samples treated with 1 μg/ml peptides. Images of A and C were taken after 1 day-treatment, and those of B and D after 3 day-treatment.

A further data set relates to EGF. Nature of the data set: Autocrine effect: EGF level in culture by ELISA. The class given is cell-based, human. Particulars: HaCat, 1 μg/ml, 6 days. Here is the method:
For examining autocrine effects, HaCat cell lines were incubated for 6 days with the tridecapeptides of this invention (1 μg/ml) and then the level of EGF in culture was measured using the ELISA kit (R&D, USA).
On the technique in general: ELISA stands for enzyme-linked immunosorbent assay.

A further data set relates to HaCaT keratinocytes. Nature of the data set: SRB colorimetric assay, growth of HaCaT keratinocytes. Format: cell-based, human. The conditions noted are these: 72 hr; for cell growth / proliferation of keratinocytes (absorbance at 590 nm): 10 ng/ml or 1,000 ng/ml, serum-free. How it is done:
To analyze effects of peptides of this invention on proliferation of keratinocytes, SRB (Sulforhodamine B) colorimetric assay was carried out using HaCaT kerationcyte according to Rizzino et al method (Rizzino, et al. Cancer Res., 48:4266 (1988)). HaCaT ketatinocytes (The Korean Cell Line Bank) were cultured in 250 ml-flasks containing EMEM (Eagle's minimal essential media, Gibco, U.S.A.) supplemented with […] (fetal bovine serum). HaCaT ketatinocytes cultured were treated with 0.25% trypsin solution to detach cells from the bottom of culture flasks and centrifuged to collect cell pellets. Cells were resuspended in EMEM not containing FBS, its aliquot (4×10^3) cells was added to each well of 96-well plates and cultured under 7% CO2 for 24 hr at 37° C. After 24-hr culture, the medium was changed with a fresh medium not containing serum and cells were incubated with human EGF or the tri-decapeptide (10 ng/ml or 1,000 ng/ml) dissolved in 10% DMSO for 72 hr under the same conditions as described above. After removing supernatants, cells were washed once using PBS (phosphate buffered saline) and incubated with SRB solution (Sigma-Aldrich). Cells were washed with PBS and observed under a microscope to examine cell viability (FIG. 3). In addition, absorbance at 590 nm was measured to analyze cell proliferation (FIG. 4). Cell adherency to culture dishes was tested using non-treated culture dishes and peptide-pretreated culture dishes. Human keratinocytes were plated on the culture dishes and then incubated for 24 hr, followed by observation under a microscope.

Setting [1] is: listed as peptide of this invention.

For “NH2-Cys-Met-Tyr-Ile-Glu-Gly-Gly-Gly-Gly-Arg-Gly-Asp-Gly-OH (H-CMYIEGGGGRGDG-OH) [tridecapeptide]”, the “level of hyaluronic acid” value with hyaluronic acid was “significantly increased”. In addition, the results for the “number of cells adhered to culture dishes vs non-treated culture dishes” value in the data set on Human keratinocytes (setting [1]) and with Human keratinocytes (listed as peptides of this invention) were “significantly high potency” and “about three-fold greater”, respectively. For the same substance, the “residual activity relative to day 0 (100%)” value with NIH-3T3 cell is “not to be decreased”. For the same substance, the cell motility entry in the data set with NIH3T3 cells is reported as “promote cell motility”. For the same substance, the results for the “level of EGF in culture (autocrine effect)” value in the data set with EGF and in the data set on EGF (listed as present peptide) were “significantly high autocrine effects on EGF” and “considerable increase”, respectively. For the same substance, the results for the “cell growth / proliferation of keratinocytes (absorbance at 590 nm)” value in the data set on HaCaT keratinocytes and in the data set with HaCaT keratinocytes (setting [1]) were “promotes the growth of human keratinocytes in a dose-dependent manner” and “significantly high potency”, respectively. In addition, in the data set on HaCaT keratinocytes (SRB staining), the “cell viability (microscope)” value is “significantly high potency”.

Regarding “recombinant EGF protein: recombinant EGF protein (Sigma-Aldrich) produced in E. coli, used as control [reference compound]”, the “residual activity relative to day 0 (100%)” value with NIH-3T3 cell was “sharply decreased”.

The record behind these values is patent publication US8188049B2, “Peptides having activities of epidermal growth factor and its uses” (Caregen Co., Ltd., priority 2006, dated 2012).
